# Measurements reported in patent US20250051266A1, “Novel GLV-Phenolamide: Biosynthesis and Function in Protecting Plants from Herbivore Attack” (Max-Planck-Gesellschaft zur Förderung der Wissenschaften …, priority 2021, published 2025).
# “Also recorded” adds a separate entry of the source.
# How the values were obtained:
# [1] = tested on: Empoasca decipiens; test: In vitro Empoasca non-choice (direct feeding) assay on artificial diet; type: in vivo; settings: physiologically relevant concentrations (CoP 7 μM, CP 100 μM, FP 10 μM) in 10% glucose solution
# Experimental: FIG. 18 Mortality rates of in vitro Empoasca non-choice assays (n=4, 25 Empoasca leafhoppers per replicate) in which Empoasca were fed for 6 h with either 1 μM m/z 347.19 synthesized by using NaPPO1/NaPPO2 and CP and Z3H and diluted in 10% glucose solution or with 10% glucose as control (top). Empoasca in planta choice assays (n=8) conducted with VIGS plants of EV, PPO1, PPO2 and AT1 (bottom).
# To test if CPH is responsible for Empoasca resistance, E. decipiens were fed with physiologically relevant concentrations of 1 μM (estimated from field-collected elicited leaves) of NMR-confirmed CPH in diets containing 10% glucose in vitro. […] NaAT1 expression was silenced in N. attenuata plants using VIGS, which disrupted the production of both CP and the CPH (Li et al., Proc Natl Acad Sci USA 112, E4147-4155 (2015)) (FIG. 13).
# Empoasca feeding assays: The survival rate of Empoasca feeding on artificial diet (10% 5 sucrose in water) supplemented with caffeoylputrescine (CP, 100 μM), coumaroylputrescine (CoP, 7 μM), feruloylputrescine (FP, 10 μM), or the m/z 347.19 hexenyl derivative of CP (CPH, 1 μM) was recorded every 1 h overnight. The artificial feeding devices consisted of a 50-mL Falcon tube with a 7-mm hole drilled into the conical bottom through which the leafhoppers were aspi-rated into the tube and which then was covered with Parafilm punctured with needles to create ventilation holes. The large opening of the Falcon tube was covered with a double layer of Parafilm containing the liquid diet (100 μL). The artificial feeding devices were placed upside down with the liquid diet side down on a White Light Box (STRATAGENE) to provide bottom-light illu-mination.
# [2] = biological target: T1, NaPPO1 (Nicotiana attenuata, UniProt A0A1J6JLI9); test: In vitro enzyme assay, substrate specificity of NaPPO1; type: biochemical; settings: incubated with NaPPO1 and (Z)-3-hexenal
# T1 sequence (A0A1J6JLI9 1-596): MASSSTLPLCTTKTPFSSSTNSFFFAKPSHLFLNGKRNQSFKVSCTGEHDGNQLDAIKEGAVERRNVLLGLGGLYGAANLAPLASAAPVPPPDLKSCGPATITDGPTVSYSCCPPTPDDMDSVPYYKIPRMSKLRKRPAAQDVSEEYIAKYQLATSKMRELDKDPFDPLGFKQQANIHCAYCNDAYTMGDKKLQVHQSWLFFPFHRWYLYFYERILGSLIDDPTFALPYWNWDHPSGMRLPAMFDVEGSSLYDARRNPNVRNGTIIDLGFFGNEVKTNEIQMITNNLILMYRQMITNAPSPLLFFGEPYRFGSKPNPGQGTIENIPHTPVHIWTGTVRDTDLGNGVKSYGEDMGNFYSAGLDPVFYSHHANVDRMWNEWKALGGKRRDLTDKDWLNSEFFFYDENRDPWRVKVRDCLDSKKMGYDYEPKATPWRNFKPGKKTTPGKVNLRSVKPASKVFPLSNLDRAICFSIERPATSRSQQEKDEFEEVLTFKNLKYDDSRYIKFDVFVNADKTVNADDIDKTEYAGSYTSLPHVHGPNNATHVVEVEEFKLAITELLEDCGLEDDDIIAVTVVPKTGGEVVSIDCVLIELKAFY
# Text: Extracted ion chromatograms (EIC) for doubly charged CP dimer (m/z 250.13) and m/z 347.19 in E. coli expressing NaPPO1 and NaPPO2 with CP and Z3H or (E)-2-hexenal. Compounds 1, 2, 3, 4 denote isomers of CP dimer; compounds 5, 6 denote isomers of m/z 347.19.
# FIG. 53 Substrate specificity of NaPPO1 and NaPPO2 enzymes. Overlay of total ion chromatograms (TIC) of enzyme assays for authentic chlorogenic acid (CGA std), N-coumaroylputrescine (CoP std), (Z)-3-hexenal or (E)-2-hexenal with purified NaPPO1/NaPPO2 from E. coli. Compounds 1 and 2 denote CGA and CoP; 3 and 4 denote contamination peaks from (Z)-3-hexenal and CoP standards, respectively.
# To test this hypothesis, purified NaPPO1, NaPPO2 and NaBBL2 proteins with N-terminal hexahistidine tags after expression in Escherichia coli were isolated (FIGS. 44-45). Incubation of either NaPPO1 or NaPPO2 (NaPPO1/2) with CP and (Z)-3-hexenal yielded a m/z 347.19 peak with identical MS/MS spectrum and retention time as the m/z 347.19 induced in N. attenuata leaves (FIG. 46). Additionally, by-products of doubly charged CP dimers at m/z 250.13 ([M+2H]2+, C26H36N4O62+) which are not detected in oral secretion-induced leaves of N. attenuata WT (Data 2) were also produced in vitro (FIG. 16 and FIG. 47). These doubly charged CP dimers were only produced when the quantities of the (Z)-3-hexenal substrate were lower than those of the CP substrate in vitro. […]
# In vitro assays of NaPPO1, NaPPO2, and NaBBL2: NaPPO1, NaPPO2, and NaBBL2 enzyme activity assays were performed by incubating 100 μg of the purified recombinant protein in 84 mM acetate buffer (pH 4.8) containing 20 mM (E)-N-caffeoylputrescine (BOC Sciences, catalogue #: B0005-053482) and 1 M cis-3-hexenal (Sigma, catalogue #: W256102-SAMPLE-K) or trans-2-hexenal (Sigma, catalogue #: W256005-1KG-K). During incubation of the enzyme reactions at 8° C., 1 μL of the reactions buffer was directly injected and analyzed by LC-MS every h to detect products. […]
substance,measurement,setting,value
N-coumaroylputrescine [CoP],changes in mortality rates of E. decipiens compared to glucose controls,[1],no significant changes in mortality rates; also recorded: not affecting leafhopper behavior or performance
same,acceptance as substrate (new products),[2],not accepted as substrates
